experiment: method code TLC index, from DOI: 10.1016/0223-5234(96)88245-6; settings: pH 7.4

First: COC(=O)C1=C(C)NC(C)=C(C(=O)OCCOc2ccccc2)C1c1cc(F)cc(F)c1 (stereo not drawn)
Second: CCOC(=O)C1=C(C)NC(C)=C(C(=O)OC)C1c1cc(F)cc(F)c1 (stereo not drawn)
The logD of the first is higher: 3.08 for the first, 1.46 for the second.

First: COC(=O)C1=C(C)NC(C)=C(C(=O)OC)C1c1cc(F)cc(F)c1
Second: CCOC(=O)C1=C(C)NC(C)=C(C(=O)OCC)C1c1cc(F)cc(F)c1
The logD of the first is lower: 1.15 for the first, 2.09 for the second.

`CCOC(=O)C1=C(C)NC(C)=C(C(=O)OCC)C1c1cccc([N+](=O)[O-])c1` and `CCOC(=O)C1=C(C)NC(C)=C(C(=O)OCC)C1c1ccc(F)cc1` are within 0.2 log units of each other in logD: 1.6 for the first, 1.66 for the second.

Going from `COC(=O)C1=C(C)NC(C)=C(C(=O)OC)C1c1ccc(F)cc1` to `COC(=O)C1=C(C)NC(C)=C(C(=O)OC)C1c1ccc(F)c(Br)c1`, the logD rises from 0.82 to 1.48.
